“Also recorded” adds a separate entry of the source. Peptide text beside a SMILES is read from it.

One assay deals with e-PBMCs. Description: Ex vivo cytokine secretion assay, exhausted PBMCs from a melanoma patient. The note with it: e-PBMC, 6 h, LEGENDplex. In kind it is cell-based, human. Here is the method: (§1) Then, an ex vivo immune cell culture system using h-PBMCs and exhausted PBMCs from a melanoma patient (e-PBMCs) was used to determine the efficacy of selected ADAPTin peptides on T-effector cells (Fig. 6).[91,92] T-cell exhaustion typically leads to a reduction in cytokine release, cytotoxic activity, as well as slower T-cell proliferation. […] Cytokines concentrations measured at 72 h post-treatment were in most cases over the detection limit range further indicating the effectiveness of our compounds over time.
(§2) Non-covalent ADAPTin2c/2p were used as negative control. (A) Levels of inflammatory cytokines measured by flow-cytometry (FACS) after 6 h incubation with electrophilic ADAPTins. Error bars indicate the mean ± SD, (n = 3). (B) Rescue of exhausted PBMCs from a melanoma patient. Levels of inflammatory cytokines and granule-associated proteins released (6 h) measured by FACS (healthy and untreated exhausted PBMCs: h-/e-PBMCs used as positive and negative controls respectively). Error bars indicate the avg ± SD, (n = 2).
(§3) Ex Vivo Cytokine Secretion Assay.
Normal PBMCs (from healthy donor) and exhausted PBMCs isolated from the blood sample of a melanoma patient were activated for 48 h before using anti-CD2/28 monoclonal antibodies with IL-2 (2 ng/mL) as mentioned above. After 48 h, PBMCs were washed and incubated with a series of ADAPTins for 6 h. After treatment, media supernatant was collected for cytokine release measurements using the LEGENDplex™ human CD8/NK (13-plex) panel (BioLegend, cat no. 740267). Briefly, samples were mixed with assay buffer and human (13-plex) mixed-beads and plated on the 96-well filter plate. Samples were incubated for 2 h at room temperature, washed, and resuspended beads with detection antibodies according to manufacturer's protocol. Samples were transferred to a 96-well plate to read on a flow cytometer. The flow cytometer and data acquisition software setting were used according to the manufacturer's instructions. Flow analysis was obtained using a CytoFLEX-S flow cytometer equipped with 3 lasers (488 nm blue, 405 nm violet, and 638 nm from Beckman).
Table S9. Raw data of cytokine secretion assay (n=2).
Cytokine assay IL-2 TNF-α IFN-γ Perforin […]

Assay [1] has as its target PD1:PDL1 interaction. Particulars: read-out: apparent Ki, PD1:PDL1 interaction; cited from earlier work. The text has this:
While downsizing a full antibody drug into a single CDR-H3 “hot loop”, one should anticipate a significant loss in binding affinity and specificity. […] The PD1 ...

A further assay has as its system N-deglycosylated PD1. Description: SDS-PAGE analysis of covalent conjugation to N-deglycosylated PD1. The class given is biochemical. Particulars: N-deglycosylated PD1, 12 h, 37 °C, pH 6.5, peptide/protein 4:1 to 16:1.
Assay [2] concerns the target T1, cell surface PD1 on CD3+/CD8+ cells of h-PBMCs (Homo sapiens, UniProt Q15116).
T1 construct: endogenous in cells; host or cells: healthy human PBMCs (CD45+, CD3+/CD8+ gated)
Description: In cellulo PD1 blockade on h-PBMCs by flow cytometry. The note with it: h-PBMC cultures, 30 h, n = 3. In kind it is cell-based. An excerpt: Then, an ex vivo immune cell culture system using h-PBMCs and exhausted PBMCs from a melanoma patient (e-PBMCs) was used to determine the efficacy of selected ADAPTin peptides on T-effector cells (Fig. 6).[91,92] T-cell exhaustion typically leads to a reduction in cytokine release, cytotoxic activity, as well as slower T-cell proliferation.
In general terms: A flow cytometer gives signals particle by particle.

The target of assay [3] is T2, PD1:PDL1 interaction (Homo sapiens, UniProt Q15116).
T2 construct: purchased BPS Bioscience 72005
T2 sequence (Q15116 25-167 limits assumed): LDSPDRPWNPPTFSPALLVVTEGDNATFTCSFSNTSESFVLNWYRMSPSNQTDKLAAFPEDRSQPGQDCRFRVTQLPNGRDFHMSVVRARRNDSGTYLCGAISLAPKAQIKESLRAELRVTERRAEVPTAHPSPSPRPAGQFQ
Description: Time-course competitive inhibition of PD1:PDL1 under saturating PDL1 (1:12). The class given is binding. Particulars: inhibitor preincubated, 3 μM; PD1:PDL1 1:12; two hours; n = 4.
Description: Time-course experiments were repeated by preincubating the non-covalent inhibitor 2c in one case, or the covalent ADAPTins2ca and 2cb at the same concentration.

Another assay has as its system h-PBMCs. Briefly: Ex vivo cytokine secretion assay, healthy PBMCs. The class given is cell-based, human. Particulars: h-PBMCs reactivated with anti-CD2/28, 6 h incubation, n = 3. Here is the method:
as §1, §2, §3
Normal PBMCs (from healthy donor) and exhausted PBMCs isolated from the blood sample of a melanoma patient were activated for 48 h before using anti-CD2/28 monoclonal antibodies with IL-2 (2 ng/mL) as mentioned above. […] Samples were transferred to a 96-well plate to read on a flow cytometer. […]

The target in assay [4] is T2, PD1:PDL1 interaction. Description: PD1/PDL1 immunoblocking ELISA (BPS Bioscience kit cat # 72005). The class given is binding. Background: In an ELISA, binding on a coated surface is turned into a signal by an enzyme label.

T1 sequence (Q15116 25-288): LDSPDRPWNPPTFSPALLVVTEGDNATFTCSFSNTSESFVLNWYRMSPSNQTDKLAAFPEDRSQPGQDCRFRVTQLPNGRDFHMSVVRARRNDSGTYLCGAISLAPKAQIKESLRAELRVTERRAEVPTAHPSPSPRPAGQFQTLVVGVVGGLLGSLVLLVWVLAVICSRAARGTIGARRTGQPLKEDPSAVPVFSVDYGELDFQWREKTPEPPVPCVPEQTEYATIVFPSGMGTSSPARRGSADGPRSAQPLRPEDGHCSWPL

In the assay with e-PBMCs (replicate 1), `CSCC[C@H](NC(=O)[C@H](CC(=O)O)NC(=O)[C@H](Cc1ccccc1)NC(=O)[C@H](CCCNC(=N)N)NC(=O)[C@H](Cc1ccc(O)cc1)NC(=O)[C@H](CC(=O)O)NC(=O)[C@H](CCCNC(=N)N)NC(=O)[C@H](CCCNC(=N)N)NC(=O)[C@H](C)NC(=O)[C@@H](NC(=O)[C@H](Cc1c[nH]c2ccccc12)NC(=O)[C@@H](N)CCCNC(=N)N)C(C)C)C(=O)NCC(=O)N[C@@H](Cc1ccccc1)C(=O)N[C@@H](CC(=O)O)C(=O)N[C@@H](Cc1ccc(O)cc1)C(=O)N[C@@H](Cc1c[nH]c2ccccc12)C(=O)N[C@H](C(=O)N[C@@H](Cc1c[nH]c2ccccc12)C(=O)N[C@@H](CCC(=O)O)C(=O)O)C(C)C` [2c] (H-RWVARRDYRFDMGFDYWVWE-OH) came in with an IFN-γ of 4131.52 pg/mL, an IL-2 of 0.44 pg/mL, a Perforin of 217.39 pg/mL and a TNF-α of 483.47 pg/mL. Also, in the assay on e-PBMCs (replicate 2), the IFN-γ is 7535.05 pg/mL, the IL-2 was 266.63 pg/mL, the Perforin was 381.31 pg/mL and the TNF-α was 1150.47 pg/mL. Also, at PD1:PDL1 interaction [1], the Ki is 41 nM. For the same compound, the “covalent conjugation to PD1 on SDS-PAGE (in words)” value in the assay on N-deglycosylated PD1 is on record as “No conjugation observed”. The “PD1 blockade on CD3+/CD8+ T-effector cells” value in assay [2] is less than 20%. Moreover, the “outcome of time-course competition with excess PDL1” value at PD1:PDL1 interaction [3] is “fully displaced by PDL1; also recorded: easily displaced”. In addition, the “increase in TNF-α, IFN-γ and perforin levels” value in the assay with h-PBMCs is “no detectable activity”. For the same compound, the 50% effective concentration (EC50) at PD1:PDL1 interaction [4] (ELISA, mean of three independent experiments, read-out: EC50 Value) came out at 249 nM. In addition, the “LE (ligand efficiency)” value on PD1:PDL1 interaction [4] (LE = -RTln(EC50)/HA, HA = non-hydrogen atoms omitting the strap (RWV•••VWE)) came to 0.07.

A word on the EC50: it is the concentration needed to bring the measured effect to its halfway point.

(Values after PMC11562385 (RSC Chemical Biology, 2024).)
